# Reference: PubChem BioAssay (NCI)
#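 How tested: cells in 96-well plates exposed to compound for 48 hours at five concentrations. GI50 is the concentration that inhibits growth by half. TGI is the concentration that stops growth completely.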
# Columns and labels:
# Experiment in all cases: NCI anticancer screen, dose series, 48 h
# MDA-MB-231 breast = system: MDA-MB-231 breast
# NCI-H226 lung = system: NCI-H226 lung
# CCRF-CEM leukemia = system: CCRF-CEM leukemia
# TK-10 renal = system: TK-10 renal
# MALME-3M melanoma = system: MALME-3M melanoma
# NCI/ADR-RES ovarian = system: NCI/ADR-RES ovarian
# K-562 leukemia = system: K-562 leukemia
# SK-MEL-5 melanoma = system: SK-MEL-5 melanoma
# UACC-257 melanoma = system: UACC-257 melanoma
# MDA-MB-435 = system: MDA-MB-435
# KM12 colon = system: KM12 colon
# HT29 colon = system: HT29 colon
# NCI-H460 lung = system: NCI-H460 lung
# PC-3 prostate = system: PC-3 prostate
# NCI-H522 lung = system: NCI-H522 lung
# EKVX NSCLC = system: EKVX NSCLC
# HCT-15 colon = system: HCT-15 colon
# UO-31 renal = system: UO-31 renal
# 786-0 renal = system: 786-0 renal
# SNB-19 CNS = system: SNB-19 CNS
# SK-MEL-2 melanoma = system: SK-MEL-2 melanoma
# SF-539 CNS = system: SF-539 CNS
# CAKI-1 renal = system: CAKI-1 renal
# RPMI-8226 leukemia = system: RPMI-8226 leukemia
# SN12C renal = system: SN12C renal
# OVCAR-8 ovarian = system: OVCAR-8 ovarian
# OVCAR-3 ovarian = system: OVCAR-3 ovarian
# HOP-92 NSCLC = system: HOP-92 NSCLC
# RXF 393 renal = system: RXF 393 renal
# OVCAR-5 ovarian = system: OVCAR-5 ovarian
# UACC-62 melanoma = system: UACC-62 melanoma
# SNB-75 CNS = system: SNB-75 CNS
# MCF7 breast = system: MCF7 breast
# U251 CNS = system: U251 CNS
# OVCAR-4 ovarian = system: OVCAR-4 ovarian
# HL-60(TB) leukemia = system: HL-60(TB) leukemia
# T-47D breast = system: T-47D breast
# HOP-62 NSCLC = system: HOP-62 NSCLC
# SK-OV-3 ovarian = system: SK-OV-3 ovarian
# COLO 205 colon = system: COLO 205 colon
# A498 renal = system: A498 renal
# BT-549 breast = system: BT-549 breast
# NCI-H23 lung = system: NCI-H23 lung
# SK-MEL-28 melanoma = system: SK-MEL-28 melanoma
# SR leukemia = system: SR leukemia
# SW-620 colon = system: SW-620 colon
# ACHN renal = system: ACHN renal
# IGROV1 ovarian = system: IGROV1 ovarian
# M14 melanoma = system: M14 melanoma
# SF-268 CNS = system: SF-268 CNS
# DU-145 prostate = system: DU-145 prostate
# MOLT-4 leukemia = system: MOLT-4 leukemia
# HS 578T breast = system: HS 578T breast
# A549 NSCLC = system: A549 NSCLC
# HCT-116 colon = system: HCT-116 colon
# HCC-2998 colon = system: HCC-2998 colon
# LOX IMVI melanoma = system: LOX IMVI melanoma
# SF-295 CNS = system: SF-295 CNS
compound,measurement,setting,value
COc1cc2c(cc1OCCCCN1CCN(C(=S)SCCC(C#N)(c3ccccc3)c3ccccc3)CC1)N=C[C@@H]1CCCN1C2=O,GI50,MDA-MB-231 breast,1.53 µM
same,TGI,MDA-MB-231 breast,4.73 µM
same,GI50,NCI-H226 lung,1.26 µM
same,TGI,NCI-H226 lung,3.29 µM
same,GI50,CCRF-CEM leukemia,0.532 µM
same,TGI,CCRF-CEM leukemia,> 100 µM
same,GI50,TK-10 renal,1.26 µM
same,TGI,TK-10 renal,3.04 µM
same,GI50,MALME-3M melanoma,1.36 µM
same,TGI,MALME-3M melanoma,3.04 µM
same,GI50,NCI/ADR-RES ovarian,3.05 µM
same,TGI,NCI/ADR-RES ovarian,> 100 µM
same,GI50,K-562 leukemia,3.29 µM
same,TGI,K-562 leukemia,> 100 µM
same,GI50,SK-MEL-5 melanoma,1.11 µM
same,TGI,SK-MEL-5 melanoma,2.82 µM
same,GI50,UACC-257 melanoma,1.97 µM
same,TGI,UACC-257 melanoma,4.17 µM
same,GI50,MDA-MB-435,1.04 µM
same,TGI,MDA-MB-435,2.81 µM
same,GI50,KM12 colon,1.39 µM
same,TGI,KM12 colon,3.78 µM
same,GI50,HT29 colon,1.13 µM
same,TGI,HT29 colon,> 100 µM
same,GI50,NCI-H460 lung,1.25 µM
same,TGI,NCI-H460 lung,4.02 µM
same,GI50,PC-3 prostate,0.697 µM
same,TGI,PC-3 prostate,2.41 µM
same,GI50,NCI-H522 lung,0.196 µM
same,TGI,NCI-H522 lung,0.642 µM
same,GI50,EKVX NSCLC,1.88 µM
same,TGI,EKVX NSCLC,5.74 µM
same,GI50,HCT-15 colon,1.41 µM
same,TGI,HCT-15 colon,3.9 µM
same,GI50,UO-31 renal,0.593 µM
same,TGI,UO-31 renal,2.09 µM
same,GI50,786-0 renal,1.28 µM
same,TGI,786-0 renal,2.8 µM
same,GI50,SNB-19 CNS,1.67 µM
same,TGI,SNB-19 CNS,3.98 µM
same,GI50,SK-MEL-2 melanoma,1.04 µM
same,TGI,SK-MEL-2 melanoma,2.35 µM
same,GI50,SF-539 CNS,1.69 µM
same,TGI,SF-539 CNS,3.27 µM
same,GI50,CAKI-1 renal,0.597 µM
same,TGI,CAKI-1 renal,2.7 µM
same,GI50,RPMI-8226 leukemia,0.496 µM
same,TGI,RPMI-8226 leukemia,2.89 µM
same,GI50,SN12C renal,1.16 µM
same,TGI,SN12C renal,4.54 µM
same,GI50,OVCAR-8 ovarian,1.59 µM
same,TGI,OVCAR-8 ovarian,> 100 µM
same,GI50,OVCAR-3 ovarian,1.2 µM
same,TGI,OVCAR-3 ovarian,2.93 µM
same,GI50,HOP-92 NSCLC,1.07 µM
same,TGI,HOP-92 NSCLC,14.3 µM
same,GI50,RXF 393 renal,0.414 µM
same,TGI,RXF 393 renal,2.01 µM
same,GI50,OVCAR-5 ovarian,2.47 µM
same,TGI,OVCAR-5 ovarian,5.38 µM
same,GI50,UACC-62 melanoma,1.32 µM
same,TGI,UACC-62 melanoma,3.55 µM
same,GI50,SNB-75 CNS,1.64 µM
same,TGI,SNB-75 CNS,3.68 µM
same,GI50,MCF7 breast,0.435 µM
same,TGI,MCF7 breast,2.23 µM
same,GI50,U251 CNS,1.11 µM
same,TGI,U251 CNS,2.66 µM
same,GI50,OVCAR-4 ovarian,1.82 µM
same,TGI,OVCAR-4 ovarian,17.7 µM
same,GI50,HL-60(TB) leukemia,0.324 µM
same,TGI,HL-60(TB) leukemia,1.57 µM
same,GI50,T-47D breast,0.578 µM
same,TGI,T-47D breast,> 100 µM
same,GI50,HOP-62 NSCLC,0.719 µM
same,TGI,HOP-62 NSCLC,2.4 µM
same,GI50,SK-OV-3 ovarian,2.96 µM
same,TGI,SK-OV-3 ovarian,9.81 µM
same,GI50,COLO 205 colon,1.4 µM
same,TGI,COLO 205 colon,5.66 µM
same,GI50,A498 renal,1.19 µM
same,TGI,A498 renal,2.81 µM
same,GI50,BT-549 breast,1.42 µM
same,TGI,BT-549 breast,8.84 µM
O=CNCNCCO,TGI,NCI-H226 lung,> 100 µM
same,TGI,CCRF-CEM leukemia,> 100 µM
same,TGI,TK-10 renal,> 100 µM
same,TGI,NCI-H23 lung,> 100 µM
same,TGI,MALME-3M melanoma,> 100 µM
same,TGI,NCI/ADR-RES ovarian,> 100 µM
same,TGI,K-562 leukemia,> 100 µM
same,TGI,SK-MEL-5 melanoma,> 100 µM
same,TGI,SK-MEL-28 melanoma,> 100 µM
same,TGI,HT29 colon,> 100 µM
same,TGI,NCI-H460 lung,> 100 µM
same,TGI,SR leukemia,> 100 µM
same,TGI,EKVX NSCLC,> 100 µM
same,TGI,HCT-15 colon,> 100 µM
same,TGI,SW-620 colon,> 100 µM
same,TGI,UO-31 renal,> 100 µM
same,TGI,786-0 renal,> 100 µM
same,TGI,SNB-19 CNS,> 100 µM
same,TGI,SK-MEL-2 melanoma,> 100 µM
same,TGI,CAKI-1 renal,> 100 µM
same,TGI,RPMI-8226 leukemia,> 100 µM
same,TGI,ACHN renal,> 100 µM
same,TGI,OVCAR-8 ovarian,> 100 µM
same,TGI,OVCAR-3 ovarian,> 100 µM
same,TGI,IGROV1 ovarian,> 100 µM
same,TGI,HOP-92 NSCLC,> 100 µM
same,TGI,RXF 393 renal,> 100 µM
same,TGI,OVCAR-5 ovarian,> 100 µM
same,TGI,M14 melanoma,> 100 µM
same,TGI,UACC-62 melanoma,> 100 µM
same,TGI,SF-268 CNS,> 100 µM
same,TGI,SNB-75 CNS,> 100 µM
same,TGI,MCF7 breast,> 100 µM
same,TGI,U251 CNS,> 100 µM
same,TGI,OVCAR-4 ovarian,> 100 µM
same,TGI,HL-60(TB) leukemia,72.8 µM
same,TGI,T-47D breast,> 100 µM
same,TGI,DU-145 prostate,> 100 µM
same,TGI,HOP-62 NSCLC,> 100 µM
same,TGI,MOLT-4 leukemia,> 100 µM
same,TGI,HS 578T breast,> 100 µM
same,TGI,SK-OV-3 ovarian,> 100 µM
same,TGI,A549 NSCLC,> 100 µM
same,TGI,HCT-116 colon,> 100 µM
same,TGI,A498 renal,> 100 µM
same,TGI,HCC-2998 colon,> 100 µM
same,TGI,BT-549 breast,> 100 µM
ClCCN(CCCl)c1ccc(/C=N/Nc2ccnc3ccccc23)cc1,TGI,MDA-MB-231 breast,3.45 µM
same,TGI,NCI-H226 lung,3.48 µM
same,TGI,TK-10 renal,3.15 µM
same,TGI,NCI-H23 lung,3.89 µM
same,TGI,MALME-3M melanoma,3.19 µM
same,TGI,K-562 leukemia,3.15 µM
same,TGI,SK-MEL-5 melanoma,3.47 µM
same,TGI,MDA-MB-435,3.14 µM
same,TGI,LOX IMVI melanoma,3.09 µM
same,TGI,NCI-H460 lung,> 100 µM
same,TGI,SF-295 CNS,2.99 µM
same,TGI,PC-3 prostate,2.99 µM
same,TGI,HCT-15 colon,2.86 µM
same,TGI,SW-620 colon,4.48 µM
same,TGI,CAKI-1 renal,3.8 µM
same,TGI,RPMI-8226 leukemia,3.97 µM
same,TGI,ACHN renal,3.37 µM
same,TGI,SN12C renal,3.18 µM
same,TGI,HOP-92 NSCLC,3.38 µM
same,TGI,UACC-62 melanoma,3.23 µM
same,TGI,MCF7 breast,> 100 µM
same,TGI,U251 CNS,3.03 µM
same,TGI,DU-145 prostate,3.5 µM
same,TGI,HOP-62 NSCLC,4.75 µM
same,TGI,HS 578T breast,5.1 µM
same,TGI,A549 NSCLC,3.38 µM
same,TGI,A498 renal,46.7 µM
